# Results: patent US6852702B2, “9a-N-[N′-(phenylsulfonyl)carbamoyl] derivatives of 9-deoxo-9-dihydro-9a-aza-9a-homoerythromycin A and of 5-O-desosaminyl-9-deoxo-9-dihydro-9a-aza-9a-homoerythronolide A” (Pliva D.D., priority 2002, dated 2005)
# Tested on: Streptococcus pneumoniae ATCC 6305
# Experiment: MIC by dilution method on microplates (NCCLS M7-A2)
# Assay type: cell-based
# Conditions: in vitro
# Method: Minimal inhibitory concentrations (MIC, in μg/ml) are determined by dilution method on microplates according to recommendations of National Committee for Clinical Laboratory Standards (NCCLS, M7-A2). So e.g. the minimal inhibitory concentration on Streptococcus pneumoniae ATCC 6305 for the compounds from Examples 1 and 4 is 2 μg/ml and for compounds from Examples 2 and 3 is 1 μg/ml. Thus, they can be used for disinfection of rooms, surgical instruments and people as well as therapeutic agents in the treatment of infective diseases in animals, specially mammals, or humans that are caused by a wide spectrum of gram-positive bacteria, microorganisms or generally pathogenic microorganisms which are sensitive to the compounds of the formula 1. For this purpose the above compounds or their pharmaceutically acceptable salts with acids may be used orally in usual doses from 0.2 mg/kg body weight per day to about 250 mg/kg/day, most frequently from 5-50 mg/kg/day, or parenterally in the form of subcutaneous or intramuscular injections.
row,Structure (SMILES),minimal inhibitory concentration (MIC) [µg/mL]
1,"CCC1OC(=O)C(C)C(OC2CC(C)(OC)C(O)C(C)O2)C(C)C(OC2OC(C)CC(N(C)C)C2O)C(C)(O)CC(C)CN(C(=O)NS(=O)(=O)c2ccc(Cl)cc2)C(C)C(O)C1(C)O (stereo not shown) [Example 1, 9-Deoxo-9-dihydro-9a-N-[N′-(4-chlorobenzenesufonyl)carbamoyl]-9a-aza-9a-homoerythromycin A]",2
2,"CCC1OC(=O)C(C)C(OC2CC(C)(OC)C(O)C(C)O2)C(C)C(OC2OC(C)CC(N(C)C)C2O)C(C)(O)CC(C)CN(C(=O)NS(=O)(=O)c2ccc(C)cc2)C(C)C(O)C1(C)O (stereo not shown) [Example 2, 9-Deoxo-9-dihydro-9a-N-[N′-(p-toluenesulfonyl)carbamoyl]-9a-aza-9a-homoerythromycin A]",1
3,"CCC1OC(=O)C(C)C(OC2CC(C)(OC)C(O)C(C)O2)C(C)C(OC2OC(C)CC(N(C)C)C2O)C(C)(O)CC(C)CN(C(=O)NS(=O)(=O)c2ccccc2C)C(C)C(O)C1(C)O (stereo not shown) [Example 3, 9-Deoxo-9-dihydro-9a-N-[N′-(o-toluenesulfonyl)carbamoyl]-9a-aza-9a-homoerythromycin A]",1
4,"CCC1OC(=O)C(C)C(OC2CC(C)(OC)C(O)C(C)O2)C(C)C(OC2OC(C)CC(N(C)C)C2O)C(C)(O)CC(C)CN(C(=O)NS(=O)(=O)c2ccccc2)C(C)C(O)C1(C)O (stereo not shown) [Example 4, 9-Deoxo-9-dihydro-9a-N-[N′-(benzenesulfonyl)carbamoyl]-9a-aza-9a-homoerythromycin A]",2
